Laboratory results from patent publication US11673916B2, “Neuroprotective peptides and methods of their use” (University of Pittsburgh—Of the Commonwealth System of …, priority 2020, dated 2023).

Tested on: cortical neurons
Experiment: Cell toxicity assay (LDH release) after excitotoxic TBOA treatment
Format: cell-based, rat
Details: 3 μM peptide, TBOA 60 μM, LDH 24 h after initial TBOA treatment, mean±SEM (FIG. 4D)
Experimental: Cortical neurons were pre-treated with vehicle, TAT-DP-2 (3 μM), or TAT-Sc-2 (3 μM) for 2 hours in HEPES-buffered minimal essential media with 0.01% bovine serum albumin (MHB). Next, cells with the same peptide concentrations along with either vehicle or 60 μM DL-threo-β-benzyloxyaspartic acid (TBOA) for 6 hours. Each well was washed two times with either 0.5 mL of vehicle or 60 μM TBOA and neurons were incubated overnight. Twenty-four hours following initial TBOA treatment, media was collected for lactate dehydrogenase assays (Sigma Aldrich, St. Louis, Mo.). Relative toxicity was quantified by calculating the ratio of LDH concentration in TBOA-treated over non-TBOA-treated wells. […]
With evidence that TAT-DP-2-mediated declustering prevents enhancement of pro-apoptotic Kv2.1 potassium currents following injury, the neuroprotective actions of TAT-DP-2 in cortical neurons in vitro were next tested. […] Neurotoxicity was assessed by the release of lactate dehydrogenase (LDH) into the culture medium, as described previously (Aras, et al., Curr Protoc Neurosci. 44: 7.18.1-7.18.15, 2008). […] Based on these findings, the potential neuroprotective actions of TAT-DP-2 were evaluated in an in vivo model of ischemia-reperfusion injury, where a substantial contribution of Kv2.1-enabled neuronal cell death has been previously observed (Yeh et al., J Neurosci. 37: 5648-5658, 2017).

Sequence | mean relative toxicity ([LDH]TBOA/[LDH]Veh)
YGRKKRRQRRRDFSSIST [TAT-Sc-2, TAT-linked scramble control peptide] | 1.57±0.15
YGRKKRRQRRRSIDSFTS [TAT-DP-2, TAT-linked declustering peptide 2] | 1.01±0.15
